One data set concerns MDA-MB231 cells. The data set can be described thus: Cell viability by CellTiter-Glo (CTG) assay. The class given is cell-based, human. To be noted: 24 hours. The text has this:
(§1) Data are mean and s.d. for experiments performed in at least duplicate. Vehicle is DMSO.
For orientation: In ATP-based viability assays light output follows the ATP content of the culture.

Data set [1] deals with H929 multiple myeloma cells. Kind of data set: Cell viability by CellTiter-Glo (CTG) assay. It is filed as cell-based. The settings on record: 24 hours.
From the text: as §1

The test system of a further data set is MEF cells. The data set can be described thus: Lactate dehydrogenase (LDH) release assay, non-specific cell lysis. It is filed as cell-based. The text has this: FIG. 5|Results of studies assessing non-specific cell-lysis by internally cross-linked peptides. Lactate dehydrogenase release assays (LDH) identified membrane-disruptive peptides 3 (SEQ ID NO:9) and 7 (SEQ ID NO:7); tested in MEF cells. Peptides 7, 10, 3, and 11-20 are SEQ ID NOs: 7, 8, 9, and 10-19 respectively.
Additional studies examined the non-specific cell lysis activity of peptide 3 (SEQ ID NO:9) (M1 SAHBd) and certain sequence variants of peptide 3 (SEQ ID NO:9) (M1 SAHBd).

Another data set addresses Mcl-1 (Homo sapiens, UniProt Q07820). The data set can be described thus: Receptor binding IC50 of M1 and stapled M1 peptides (Table 2). To be noted: among M1 and its stapled variants. The text has this:
Peptides 1-10 are SEQ ID NOs: 46, 47, 9, 48, 49, 50, 7, 51, 52, and 8 respectively.

In data set [2] the target is T1, interaction between Bak and Mcl-1 (Homo sapiens, UniProt Q07820).
T1 construct: endogenous in cells; host or cells: OCI-AML3 cell lysate
T1 sequence (Q07820 whole entry): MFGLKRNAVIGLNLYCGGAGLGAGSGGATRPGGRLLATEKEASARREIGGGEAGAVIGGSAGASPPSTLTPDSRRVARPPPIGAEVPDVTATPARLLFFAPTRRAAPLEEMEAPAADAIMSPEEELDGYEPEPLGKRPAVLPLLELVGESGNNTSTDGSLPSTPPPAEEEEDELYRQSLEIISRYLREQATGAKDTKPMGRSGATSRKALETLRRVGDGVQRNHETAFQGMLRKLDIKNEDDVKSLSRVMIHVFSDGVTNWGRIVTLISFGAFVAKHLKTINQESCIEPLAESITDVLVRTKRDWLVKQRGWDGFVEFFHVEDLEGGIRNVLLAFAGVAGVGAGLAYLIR
Kind of data set: Mcl-1 immunoprecipitation and Bak western analysis in OCI-AML3 cell lysate. The class given is biochemical. From the text:
The same blot was probed with the Bak (˜28 kD) antibody.

The nature of data set [3]: Circular dichroism analysis of alpha-helicity. To be noted: Tris buffer pH 7.4. The class given is physicochemical. From the text:
FIG. 4|Results of studies assessing the alpha-helicity of various internally cross-linked peptides. Circular dichroism analysis illustrating helicity of stapled peptides 3 (SEQ ID NO:9), 7 (SEQ ID NO:7), and 10 (SEQ ID NO:8) and the non-stapled peptide of the amino acid sequence […] (SEQ ID NO:54), dissolved in Tris buffer pH.7.4.
On the technique in general: CD spectra are sensitive to the conformation of chiral molecules.

This is an account of results in patent US11142554B2 (MASSACHUSETTS INSTITUTE OF TECHNOLOGY, priority 2015, dated 2021).

The structures appear in SMILES notation. Positions of bridges follow the written chain, without caps; N, C: chain ends. Non-standard residues stand in square brackets, D forms with d. Residues, ends and D or L forms follow the SMILES beside them. S5 = C=CCCC[C@](C)(N)C(=O)O; Nle = CCCC[C@H](N)C(=O)O

Sequence of Mcl-1 (Q07820 whole entry): as above

In the case of `CN(C)CC[C@H](CSc1ccccc1)Nc1ccc(S(=O)(=O)NC(=O)c2ccc(N3CCN(Cc4ccccc4-c4ccc(Cl)cc4)CC3)cc2)cc1[N+](=O)[O-]` [ABT-737], the “effect on cell viability (in words)” value with MDA-MB231 cells is given as “clear dose-dependent reduction in cell viability”; in data set [1], “not active”.

As to `CCCC[C@H](NC(=O)[C@H](Cc1c[nH]c2ccccc12)NC(=O)[C@@H](NC(C)=O)[C@@H](C)CC)C(=O)N[C@@]1(C)CCCC=CCCC[C@@](C)(C(=O)N[C@@H](CCCNC(=N)N)C(=O)N[C@@H](CC(C)C)C(=O)NCC(=O)N[C@@H](CC(=O)O)C(=O)N[C@@H](CCC(=O)O)C(=O)N[C@H](C(=O)N[C@@H](CC(N)=O)C(=O)N[C@@H](C)C(=O)N[C@@H](Cc2ccc(O)cc2)C(=O)N[C@@H](Cc2ccc(O)cc2)C(=O)N[C@@H](C)C(=O)N[C@@H](CCCNC(=N)N)C(=O)N[C@@H](CCCNC(=N)N)C(N)=O)[C@@H](C)CC)NC(=O)[C@H](CC(C)C)NC(=O)CNC(=O)[C@H](CCC(N)=O)NC1=O` [peptide 3, IWNleXQGLXRLGDEINAYYARR] (Ac-IW[Nle][S5]QGL[S5]RLGDEINAYYARR-NH2; staple 4-8; N-terminus assumed), in the data set on MEF cells, the “LDH release, membrane disruption (in words)” value is on record as “membrane-disruptive”. Besides, on Mcl-1, the “selectivity for Mcl-1 over Bcl-xL, Bcl-2, Bclw and Bfl 1 (in words)” value is on record as “greatest selectivity for Mcl-1”. In data set [2], the “disruption of Bak/Mcl-1 interaction (in words)” value was “interaction between Bak and Mcl-1 was disrupted”. In data set [3], the “alpha-helical content (in words)” value is “highest alpha-helical content”.
